According to ChEMBL document CHEMBL5223118, “Magnet for the Needle in Haystack: "Crystal Structure First" Fragment Hits Unlock Active Chemical Matter Using Targeted Exploration of Vast Chemical Spaces” (J Med Chem, 2022):

molecular target: cAMP-dependent protein kinase (PKA) (Homo sapiens, UniProt P22694+P17612+P22612); assay: Inhibition of PKA (unknown origin); assay type: protein assay

Row | Ki [µM] | SMILES
1 | 540 | N#Cc1cc(-c2cccc(CC(N)CC3CC3)c2)ccc1N (stereo unspecified)
2 | 588 | COc1cc(NCCNc2ccnc(N)c2C#N)cc(OC)c1
3 | 2101 | N#Cc1cc(-c2cccc(C3CNCCO3)c2)ccc1N (stereo unspecified)
4 | 174.4 | CN(C)Cc1ccc(F)c(-c2ccc3c(C#N)c(N)[nH]c3c2)c1
5 | 390.2 | N#Cc1cc(-c2cccc(C3(CN)CCOCC3)c2)ccc1N
6 | 20000 | Cc1cc(C(=O)Nc2ccncc2)c(C)o1
7 | 6379 | N#Cc1c(N)ccnc1C=C1CCNCC1
8 | 0.74 | N[C@H]1CCN(Cc2cccc(-c3ccc4c(O)nccc4c3)c2)C1
9 | 955 | N#Cc1cc(-c2cccc(C3COCCN3)c2)ccc1N (stereo unspecified)

Second part, the molecule before the results:

Row | SMILES | Ki [µM]
10 | COC1(CNC(=O)N2CCN(c3ccncc3C)CC2)CCCS(=O)(=O)C1 (stereo unspecified) | 354.3
11 | COCC1CCC(NC(=O)c2ccc3c(c2)CCNC3=O)CC1 (stereo unspecified) | 6219
12 | COCC1CN=C(N2CCN(c3ccncc3Cl)CC2)N1.I (stereo unspecified) | 139.3
13 | N[C@@H]1CCN(Cc2cccc(-c3ccc4c(O)nccc4c3)c2)C1 | 3
14 | N#Cc1c(N2CCCC2)n[nH]c1N | 5000
15 | NC1CCN(Cc2cccc(-c3ccc4c(O)nccc4c3)c2)C1 (racemic) | 0.744
16 | N#Cc1c(N)ccc(/C=C2/CCCNC2)c1Cl | 85
17 | NCCC1CN(C(=O)c2ccc(C(N)=O)cc2)c2ccccc21 (stereo unspecified) | 5000
18 | O=c1[nH]ccc2cc(-c3cccc(Cn4cccn4)c3)ccc12 | 154.7
19 | CCn1cc(-c2csc3c(=O)[nH]ccc23)cn1 | 1423
20 | CC1(CS(=O)(=O)N2CCc3c(sc(N)c3C#N)C2)CC1(F)F (stereo unspecified) | 4743
21 | NC1C=C(C(F)(F)F)C=NC1=O (stereo unspecified) | 10000
